# Data from article PMC7150870 (Toxins, 2020).
# Read-outs that look alike come from different tables or passages of the source. Marks after values point to notes of the source that are not given here.
# Legend:
# HEK 293T cells [1] = format: cell-based, human
# [2] = tested on: HepG2, Caco-2, RAW 264.7, and HEK 293T cells; conditions: read-out: IC50 range in studied cells
# Caco-2 = format: cell-based, human
# various mammalian cells = conditions: cited from earlier work
# HEK293T = format: cell-based, human
# P-gp [3] = target: T1, P-gp (Homo sapiens, UniProt P08183); conditions: cited from earlier work
# T1 sequence (P08183 whole entry, looked up): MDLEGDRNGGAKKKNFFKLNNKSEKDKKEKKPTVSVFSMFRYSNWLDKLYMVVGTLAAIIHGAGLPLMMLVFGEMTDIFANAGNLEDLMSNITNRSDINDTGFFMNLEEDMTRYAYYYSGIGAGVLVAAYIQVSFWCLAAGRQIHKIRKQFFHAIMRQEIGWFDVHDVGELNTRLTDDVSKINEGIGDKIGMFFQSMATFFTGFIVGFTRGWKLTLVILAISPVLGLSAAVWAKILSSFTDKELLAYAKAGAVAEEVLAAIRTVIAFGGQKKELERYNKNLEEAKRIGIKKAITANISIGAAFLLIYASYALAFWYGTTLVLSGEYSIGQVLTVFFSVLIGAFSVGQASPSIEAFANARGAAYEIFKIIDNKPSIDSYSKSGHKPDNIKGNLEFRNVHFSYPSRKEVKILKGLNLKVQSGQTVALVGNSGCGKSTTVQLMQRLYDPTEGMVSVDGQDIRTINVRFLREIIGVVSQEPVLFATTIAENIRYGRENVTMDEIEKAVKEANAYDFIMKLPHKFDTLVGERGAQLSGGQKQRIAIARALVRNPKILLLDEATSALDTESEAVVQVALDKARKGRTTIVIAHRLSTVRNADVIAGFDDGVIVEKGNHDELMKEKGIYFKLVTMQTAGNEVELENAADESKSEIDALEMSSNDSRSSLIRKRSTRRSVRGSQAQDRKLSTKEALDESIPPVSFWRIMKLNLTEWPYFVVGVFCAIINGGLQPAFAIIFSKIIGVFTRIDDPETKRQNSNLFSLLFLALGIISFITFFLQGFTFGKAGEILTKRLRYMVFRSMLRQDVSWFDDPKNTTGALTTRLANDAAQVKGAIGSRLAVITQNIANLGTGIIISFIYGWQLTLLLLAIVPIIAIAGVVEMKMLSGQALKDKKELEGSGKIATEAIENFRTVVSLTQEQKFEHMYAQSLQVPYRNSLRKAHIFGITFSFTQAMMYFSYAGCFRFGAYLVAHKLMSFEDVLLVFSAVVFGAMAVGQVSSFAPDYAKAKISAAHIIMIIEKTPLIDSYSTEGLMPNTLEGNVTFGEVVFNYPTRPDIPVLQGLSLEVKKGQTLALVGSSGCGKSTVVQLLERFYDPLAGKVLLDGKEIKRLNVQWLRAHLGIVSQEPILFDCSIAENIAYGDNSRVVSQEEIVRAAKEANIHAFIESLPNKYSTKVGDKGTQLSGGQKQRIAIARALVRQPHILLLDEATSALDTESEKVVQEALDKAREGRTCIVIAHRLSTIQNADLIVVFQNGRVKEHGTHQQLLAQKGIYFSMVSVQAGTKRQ
# RAW 264.7 = format: cell-based, mouse
# HEK293T cells = format: cell-based, human
# P-gp [4] = target: T1, P-gp
# epithelial cell layers = conditions: cited from earlier work
# HepG2 = format: cell-based, human
# TNF-α = conditions: cited from earlier work
# human fibroblasts = conditions: 50 µM for 24 h; cited from earlier work
# HEK 293T cells [5] = tested on: HEK 293T cells
# [6] = 5.2–15.5 mM; cited from earlier work
# hepatocyte cells = conditions: cited from earlier work
# [7] = human (Caco-2), mouse (RAW 264.7)
compound,measurement,setting,value
"CC(=O)OC[C@]12C[C@H](OC(=O)CC(C)C)C(C)=C[C@H]1O[C@@H]1[C@H](O)[C@@H](OC(C)=O)[C@@]2(C)[C@]12CO2 [T-2, T-2 toxin]","combination index, silibinin 3.4 µM",HEK 293T cells [1],0.99 ± 0.02 Add
same,"combination index, silibinin 6.8 µM",HEK 293T cells [1],1.46 ± 0.14 Ant
same,"combination index, silibinin 13.6 µM",HEK 293T cells [1],1.82 ± 0.06 Ant
same,"combination index, silibinin 27.3 µM",HEK 293T cells [1],1.41 ± 0.11 Ant
same,"combination index, silibinin 54.5 µM",HEK 293T cells [1],0.91 ± 0.04 Add
same,"combination index, silibinin 109.00 µM",HEK 293T cells [1],1.00 ± 0.08 Add
same,silibinin pretreatment concentration with the strongest antagonism,HEK 293T cells [1],13.6 µM
same,"type of interaction, silibinin 3.4 µM",HEK 293T cells [1],0.99 ± 0.02 Add (key: Syn: Combination index (CI) < 0.9; Add: 0.9 ≤ CI ≤ 1; Ant: CI > 1)
same,"type of interaction, silibinin 6.8 µM",HEK 293T cells [1],1.46 ± 0.14 Ant (key: Syn: Combination index (CI) < 0.9; Add: 0.9 ≤ CI ≤ 1; Ant: CI > 1)
same,"type of interaction, silibinin 13.6 µM",HEK 293T cells [1],1.82 ± 0.06 Ant (key: Syn: Combination index (CI) < 0.9; Add: 0.9 ≤ CI ≤ 1; Ant: CI > 1)
same,"type of interaction, silibinin 27.3 µM",HEK 293T cells [1],1.41 ± 0.11 Ant (key: Syn: Combination index (CI) < 0.9; Add: 0.9 ≤ CI ≤ 1; Ant: CI > 1)
same,"type of interaction, silibinin 54.5 µM",HEK 293T cells [1],0.91 ± 0.04 Add (key: Syn: Combination index (CI) < 0.9; Add: 0.9 ≤ CI ≤ 1; Ant: CI > 1)
same,"type of interaction, silibinin 109.00 µM",HEK 293T cells [1],1.00 ± 0.08 Add (key: Syn: Combination index (CI) < 0.9; Add: 0.9 ≤ CI ≤ 1; Ant: CI > 1)
same,IC50,[2],3.57 to 13.4 nM
same,IC50,Caco-2,13.4 ± 1.07 nM
same,IC50,various mammalian cells,3 to 500 nM
same,IC50,HEK293T,3.87 ± 0.27 nM
same,P-gp substrate,P-gp [3],not a substrate of P-gp
same,IC50,RAW 264.7,3.57 ± 0.27 nM
same,metabolites found by non-target U-HPLC-MS analysis,Caco-2 cells,"3´-hydroxy, 3-hydroxy-15-deacetyl"
same,"transepithelial transport, Apical Medium",Caco-2 cells,11.63 ± 0.62^a %
same,"transepithelial transport, Basolateral Medium",Caco-2 cells,28.13 ± 0.48^e %
same,"transepithelial transport, Caco-2 Cells",Caco-2 cells,0.01 ± 0.00^a %
same,"transepithelial transport, Raw 264.7 Cells",Caco-2 cells,0.01 ± 0.00^a %
same,"transepithelial transport, Total",Caco-2 cells,39.77 ± 0.98^b %
same,IC50,HEK293T cells; read-out: IC50 halving the HEK293T cells viability,7 nM
same,P-gp activation (ATP consumption),P-gp [4],activated P-gp in dose-dependent manner
same,transport through the epithelial cell layers,epithelial cell layers,≤ 24%
same,IC50,HepG2,11.4 ± 0.37 nM
"COc1cc(C2Oc3cc([C@H]4Oc5cc(O)cc(O)c5C(=O)[C@@H]4O)ccc3OC2CO)ccc1O (stereo partly shown) [Silibinin, silibinin, reference compound]",decrease of cell viability compared to cells cultured with a single mycotoxin,HEK 293T cells [1],about 30%
same,OTA-induced TNF-α level reduced to,TNF-α,70%
same,doses completely blocking OTA-induced TNF-α,TNF-α,1 to 26 µM
same,cytotoxic effect,human fibroblasts,no significant cytotoxic effect
same,percentage of DNA in comet tail with respect to the negative control,HEK 293T cells [5],did not induce genotoxic effects
same,metabolites found by non-target U-HPLC-MS analysis,Caco-2 cells,sulfate derivative
same,"transepithelial transport, Apical Medium",Caco-2 cells; [7],44.34 ± 1.96^cd %
same,"transepithelial transport, Basolateral Medium",Caco-2 cells; [7],23.24 ± 1.79^de %
same,"transepithelial transport, Caco-2 Cells",Caco-2 cells; [7],0.00 ± 0.00^a %
same,"transepithelial transport, Raw 264.7 Cells",Caco-2 cells; [7],0.00 ± 0.00^a %
same,"transepithelial transport, Total",Caco-2 cells; [7],67.58 ± 2.95^cd %
same,reduction of cell viability by sole silibinin treatment,HEK293T cells,45%
same,amount of DNA in the comet tail compared to positive control,[6],reduced the amount of DNA in the comet tail
same,effect against OTA cytotoxicity,hepatocyte cells,protective effect
